Where “and” joins values, the source holds several entries; their conditions need not be identical. Identical values can stand only once. Toxic doses and inconclusive results are not listed.
Test system: BDF1 mice, P388 leukemia ip, median survival T/C
Assay: NCI In Vivo Anticancer Drug Screen. Data for tumor model P388 Leukemia (intraperitoneal) in B6D2F1 (BDF1) mice
Details: endpoint: median survival time, higher = longer survival
Method in brief: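 Survival ratio, drug arm over vehicle arm, in mice with a transplanted tumour.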

[1] = dose: 50.0 mg/kg/injection, schedule: Q01DX009 (ip), vehicle: saline
[2] = dose: 50.0 mg/kg/injection, schedule: Q04DX003 (ip), vehicle: saline with Tween-80
[3] = dose: 100.0 mg/kg/injection, schedule: Q01DX009 (ip), vehicle: saline
[4] = dose: 100.0 mg/kg/injection, schedule: Q04DX003 (ip), vehicle: saline with Tween-80
[5] = dose: 25.0 mg/kg/injection, schedule: Q01DX009 (ip), vehicle: saline with Tween-80
[6] = dose: 50.0 mg/kg/injection, schedule: Q01DX009 (ip), vehicle: saline with Tween-80
[7] = dose: 100.0 mg/kg/injection, schedule: Q01DX009 (ip), vehicle: saline with Tween-80
[8] = dose: 200.0 mg/kg/injection, schedule: Q01DX009 (ip), vehicle: saline with Tween-80
[9] = dose: 200.0 mg/kg/injection, schedule: Q04DX003 (ip), vehicle: saline with Tween-80
[10] = dose: 400.0 mg/kg/injection, schedule: Q04DX003 (ip), vehicle: saline with Tween-80
[11] = dose: 100.0 mg/kg/injection, schedule: Q01DX001 (ip), vehicle: saline with Tween-80
[12] = dose: 200.0 mg/kg/injection, schedule: Q01DX001 (ip), vehicle: saline with Tween-80
[13] = dose: 12.5 mg/kg/injection, schedule: Q01DX009 (ip), vehicle: saline with Tween-80

CCC1CC2CC(c3cc4c(cc3OC)N(C)C3C(O)(C(=O)OC)C(OC(C)=O)C5(CC)C=CCN6CCC43C65)c3[nH]c4ccccc4c3CCN(C1)C2 (stereo not given)
T/C (dose: 0.03 mg/kg/injection, schedule: Q01DX009 (ip), vehicle: water): 181 % of control
T/C (dose: 0.06 mg/kg/injection, schedule: Q01DX009 (ip), vehicle: water): 100 % of control
T/C (dose: 0.12 mg/kg/injection, schedule: Q01DX009 (ip), vehicle: water): 100 % of control
T/C (dose: 0.25 mg/kg/injection, schedule: Q01DX009 (ip), vehicle: water): 90 % of control and 95 % of control
T/C (dose: 0.25 mg/kg/injection, schedule: Q04DX003 (ip), vehicle: water): 90 % of control
T/C (dose: 0.5 mg/kg/injection, schedule: Q01DX009 (ip), vehicle: water): 100 % of control and 104 % of control
T/C (dose: 0.5 mg/kg/injection, schedule: Q04DX003 (ip), vehicle: water): 95 % of control
T/C (dose: 1.0 mg/kg/injection, schedule: Q01DX009 (ip), vehicle: water): 109 % of control
T/C (dose: 1.0 mg/kg/injection, schedule: Q04DX003 (ip), vehicle: water): 95 % of control
T/C (dose: 2.0 mg/kg/injection, schedule: Q01DX009 (ip), vehicle: water): 104 % of control
T/C (dose: 4.0 mg/kg/injection, schedule: Q04DX003 (ip), vehicle: water): 95 % of control
T/C (dose: 6.0 mg/kg/injection, schedule: Q04DX003 (ip), vehicle: water): 90 % of control
T/C (dose: 5.0 micrograms/kg/injection, schedule: Q01DX009 (ip), vehicle: water): 104 % of control
T/C (dose: 10.0 micrograms/kg/injection, schedule: Q01DX009 (ip), vehicle: water): 102 % of control
T/C (dose: 20.0 micrograms/kg/injection, schedule: Q01DX009 (ip), vehicle: water): 90 % of control
T/C (dose: 40.0 micrograms/kg/injection, schedule: Q01DX009 (ip), vehicle: water): 100 % of control
T/C (dose: 80.0 micrograms/kg/injection, schedule: Q01DX009 (ip), vehicle: water): 92 % of control

COc1ccc(OCC(O)CN2CCN(c3ccc(Cl)cc3)CC2)cc1 (stereo not given)
T/C (dose: 6.25 mg/kg/injection, schedule: Q01DX009 (ip), vehicle: Klucel (hydroxypropylcellulose) (HPC)): 100 % of control
T/C (dose: 12.5 mg/kg/injection, schedule: Q01DX009 (ip), vehicle: Klucel (hydroxypropylcellulose) (HPC)): 95 % of control
T/C (dose: 25.0 mg/kg/injection, schedule: Q01DX009 (ip), vehicle: Klucel (hydroxypropylcellulose) (HPC)): 86 % of control

C(COCC1CO1)OCC1CO1 (stereo not given)
T/C (dose: 25.0 mg/kg/injection, schedule: Q01DX009 (ip), vehicle: saline): 154 % of control and 165 % of control
T/C (dose: 25.0 mg/kg/injection, schedule: Q04DX003 (ip), vehicle: saline): 108 % of control
T/C [1]: 168 % of control and 185 % of control
T/C [2]: 160 % of control
T/C [3]: 209 % of control
T/C [4]: 165 % of control
T/C (dose: 100.0 mg/kg/injection, schedule: Q04DX003 (ip), vehicle: saline): 154 % of control

COc1ccc2nonc2c1
T/C [5]: 102 % of control
T/C [6]: 93 % of control
T/C [7]: 90 % of control
T/C [8]: 106 % of control

Cc1ccc(NC(=O)c2ccccc2C(=O)O)cc1C
T/C [4]: 118 % of control
T/C [9]: 100 % of control
T/C [10]: 118 % of control

CCNS(=O)(=O)c1ncnc2nc[nH]c12
T/C [7]: 100 % of control
T/C [4]: 104 % of control
T/C [8]: 100 % of control
T/C [9]: 100 % of control
T/C (dose: 400.0 mg/kg/injection, schedule: Q01DX009 (ip), vehicle: saline with Tween-80): 100 % of control
T/C [10]: 100 % of control

C=CCCCCCCCCCCCCCCCC (tested in a mixture with another compound)
T/C (dose: 50.0 mg/kg/injection, schedule: Q01DX009 (ip), vehicle: other): 113 % of control

CC(NC1=NCCO1)c1cccc2ccccc12 (stereo not given)
T/C [11]: 91 % of control
T/C [12]: 91 % of control
T/C (dose: 400.0 mg/kg/injection, schedule: Q01DX001 (ip), vehicle: saline with Tween-80): 91 % of control

Nc1ccn(CC(=O)c2cccs2)c(=O)n1
T/C [5]: 100 % of control
T/C [6]: 115 % of control
T/C [7]: 100 % of control
T/C [4]: 90 % of control
T/C [9]: 95 % of control

O=C1NC(c2cccc3ccccc23)Nc2ccc(Cl)cc21 (stereo not given)
T/C (dose: 50.0 mg/kg/injection, schedule: Q01DX009 (ip), vehicle: Klucel (hydroxypropylcellulose) (HPC)): 160 % of control
T/C (dose: 75.0 mg/kg/injection, schedule: Q01DX009 (ip), vehicle: Klucel (hydroxypropylcellulose) (HPC)): 155 % of control
T/C (dose: 100.0 mg/kg/injection, schedule: Q01DX009 (ip), vehicle: Klucel (hydroxypropylcellulose) (HPC)): 111 % of control

CCC(CO)NC(=O)/C=C/c1ccccc1Cl (stereo not given)
T/C [8]: 91 % of control

CSc1ccc(NC(=O)Nc2ccc(N=Nc3ccccc3)cc2)cc1
T/C (dose: 42.5 mg/kg/injection, schedule: Q01DX009 (ip), vehicle: Klucel (hydroxypropylcellulose) (HPC)): 100 % of control
T/C (dose: 85.0 mg/kg/injection, schedule: Q01DX009 (ip), vehicle: Klucel (hydroxypropylcellulose) (HPC)): 100 % of control
T/C (dose: 170.0 mg/kg/injection, schedule: Q01DX009 (ip), vehicle: Klucel (hydroxypropylcellulose) (HPC)): 100 % of control

O=C(O)CSC(=S)c1ccccc1
T/C [5]: 118 % of control
T/C [7]: 121 % of control

C=C1C(=O)OC2C1C(OC(=O)/C(C)=C/CO)C/C(C)=C/CCC1(CO)OC21 (stereo not given)
T/C (dose: 0.5 mg/kg/injection, schedule: Q01DX009 (ip), vehicle: Klucel (hydroxypropylcellulose) (HPC)): 97 % of control
T/C (dose: 1.0 mg/kg/injection, schedule: Q01DX009 (ip), vehicle: Klucel (hydroxypropylcellulose) (HPC)): 94 % of control
T/C (dose: 2.0 mg/kg/injection, schedule: Q01DX009 (ip), vehicle: Klucel (hydroxypropylcellulose) (HPC)): 101 % of control
T/C (dose: 4.0 mg/kg/injection, schedule: Q01DX009 (ip), vehicle: Klucel (hydroxypropylcellulose) (HPC)): 100 % of control

CC1(C)N=C(N)N=C(N)N1c1ccc2ccccc2c1
T/C (dose: 12.5 mg/kg/injection, schedule: Q01DX009 (ip), vehicle: saline): 120 % of control
T/C [1]: 160 % of control
T/C (dose: 50.0 mg/kg/injection, schedule: Q04DX003 (ip), vehicle: saline): 100 % of control

c1cc2n(n1)CCN2
T/C (dose: 50.0 mg/kg/injection, schedule: Q01DX009 (ip), vehicle: water): 105 % of control
T/C (dose: 80.0 mg/kg/injection, schedule: Q01DX009 (ip), vehicle: saline): 90 % of control
T/C (dose: 100.0 mg/kg/injection, schedule: Q01DX009 (ip), vehicle: water): 90 % of control
T/C [4]: 120 % of control
T/C (dose: 100.0 mg/kg/injection, schedule: Q04DX003 (ip), vehicle: water): 103 % of control
T/C (dose: 120.0 mg/kg/injection, schedule: Q01DX009 (ip), vehicle: saline): 107 % of control
T/C (dose: 180.0 mg/kg/injection, schedule: Q01DX009 (ip), vehicle: saline): 112 % of control
T/C (dose: 200.0 mg/kg/injection, schedule: Q01DX009 (ip), vehicle: water): 90 % of control
T/C (dose: 200.0 mg/kg/injection, schedule: Q04DX003 (ip), vehicle: water): 96 % of control
T/C (dose: 400.0 mg/kg/injection, schedule: Q04DX003 (ip), vehicle: water): 121 % of control

COC1OC(COC(C)=O)C(OC(C)=O)C(OC(C)=O)[CH]1[Hg][O]C(C)=O (stereo not given)
T/C (dose: 3.13 mg/kg/injection, schedule: Q01DX009 (ip), vehicle: saline): 95 % of control
T/C (dose: 6.25 mg/kg/injection, schedule: Q01DX009 (ip), vehicle: saline): 114 % of control

CCOCc1cc([N+](=O)[O-])cc([N+](=O)[O-])c1O
T/C [13]: 109 % of control
T/C [5]: 113 % of control

Cc1cc(CC(Cl)(C(F)(F)F)C(F)(F)F)cc(CC(Cl)(C(F)(F)F)C(F)(F)F)n1
T/C (dose: 6.25 mg/kg/injection, schedule: Q01DX009 (ip), vehicle: saline with Tween-80): 110 % of control
T/C [13]: 105 % of control
T/C (dose: 12.5 mg/kg/injection, schedule: Q04DX003 (ip), vehicle: saline with Tween-80): 90 % of control
T/C [5]: 110 % of control
T/C (dose: 25.0 mg/kg/injection, schedule: Q04DX003 (ip), vehicle: saline with Tween-80): 90 % of control
T/C [2]: 113 % of control

CC(O)C(O)C(O)C(/C=N\NC(N)=S)=N/NC(N)=S (stereo not given)
T/C [3]: 92 % of control
T/C (dose: 200.0 mg/kg/injection, schedule: Q01DX009 (ip), vehicle: saline): 100 % of control
T/C (dose: 400.0 mg/kg/injection, schedule: Q01DX009 (ip), vehicle: saline): 88 % of control

CC(C)CC(C(N)=O)c1ccccc1 (stereo not given)
T/C [11]: 100 % of control
T/C [12]: 104 % of control
